Experimental data published in US20170291890A1 (Epizyme, Inc., priority 2014, published 2017).
Read-outs that look alike come from different tables or passages of the source.

Tests used:
KDM4A = biological target: T1, KDM4A (Homo sapiens, UniProt O75164); experiment: KDM4A Assay (SAMDI mass spectrometry demethylase assay); type: biochemical; settings: N-terminal His-tagged KDM4A 1-350, read-out: 4A IC50
T1 construct: N-terminal His-tagged KDM4A^1-350 was purchased from BPS Biosciences; His (N); purchased BPS Biosciences
T1 sequence (O75164 1-350): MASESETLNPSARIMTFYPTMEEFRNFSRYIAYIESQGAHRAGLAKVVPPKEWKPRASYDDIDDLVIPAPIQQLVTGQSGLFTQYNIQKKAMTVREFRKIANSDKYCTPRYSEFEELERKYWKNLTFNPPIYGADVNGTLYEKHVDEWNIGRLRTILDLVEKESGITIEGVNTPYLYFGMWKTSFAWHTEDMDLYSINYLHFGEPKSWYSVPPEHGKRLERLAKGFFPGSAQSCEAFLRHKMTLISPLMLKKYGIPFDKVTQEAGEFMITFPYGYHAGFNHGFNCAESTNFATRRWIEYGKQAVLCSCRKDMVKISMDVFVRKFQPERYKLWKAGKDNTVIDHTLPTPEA
How it was run: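 His-tagged KDM4A 1-350 (5 nM final) was preincubated 30 min with compound (10 μM final for screening) in 50 mM HEPES pH 8.0 with ascorbate, 10 μM Fe(II) and TCEP. Biotinylated Kme2 peptide (600 nM) and 2-oxoglutarate (5 μM) reacted 120 min at 25°C before a formic acid stop. SAMDI-MS % conversion from substrate and product peak areas; IC50 from dose-response.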

KDM4C = biological target: T2, KDM4C (Homo sapiens, UniProt Q9H3R0); experiment: KDM4C Assay (SAMDI mass spectrometry demethylase assay); type: biochemical; settings: N-terminal GST-tagged KDM4C 2-372, read-out: 4C IC50
T2 construct: N-terminal GST-tagged KDM4C^2-372 was purchased from BPS Biosciences; GST (N); purchased BPS Biosciences
T2 sequence (Q9H3R0 2-372): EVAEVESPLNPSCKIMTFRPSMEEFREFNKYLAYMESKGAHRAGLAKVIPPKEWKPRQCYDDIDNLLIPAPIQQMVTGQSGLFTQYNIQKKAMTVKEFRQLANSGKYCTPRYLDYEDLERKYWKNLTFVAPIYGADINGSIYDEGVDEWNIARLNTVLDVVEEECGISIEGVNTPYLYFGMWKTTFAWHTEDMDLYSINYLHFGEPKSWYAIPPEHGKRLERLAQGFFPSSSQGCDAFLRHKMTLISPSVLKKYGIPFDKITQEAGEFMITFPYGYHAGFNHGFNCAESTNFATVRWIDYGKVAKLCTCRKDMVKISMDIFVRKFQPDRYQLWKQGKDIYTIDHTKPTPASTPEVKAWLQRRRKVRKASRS
How it was run: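 GST-tagged KDM4C 2-372 (5 nM) preincubated 30 min with compound, then H3K9me3 biotinylated peptide (500 nM) and 2-oxoglutarate (15 μM) added in HEPES pH 8.0 with ascorbate, Fe(II), TCEP; 150 min at 25 °C, formic-acid quench. Conversion by SAMDI mass spectrometry from substrate/product peak AUC; IC50 from dose-response.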

Row | Compound | IC50 (KDM4A; class symbols) [nM] | IC50 (KDM4C; class symbols) [nM] | IC50 (KDM4C; numeric bound) [nM] | IC50 (KDM4A; numeric value) [nM]
1 | NC1CCC(n2nc(Nc3cnccc3C(=O)O)cc2-c2cccc(Cl)c2)CC1 (stereo not shown) [Compound 87, 3-((1-(4-aminocyclohexyl)-5-(3-chlorophenyl)-1H-pyrazol-3-yl)amino)isonicotinic acid] | 10000 to 100000 | 10000 to 100000 | – | –
2 | CCc1c(Nc2cnccc2C(=O)O)cnn1-c1ccccc1 [Compound 81, 3-((5-ethyl-1-phenyl-1H-pyrazol-4-yl)amino)isonicotinic acid] | 1 to 100 | 1 to 100 | – | –
3 | Cc1c(Nc2cnccc2C(=O)O)cnn1C1CCN(CC2CC2)CC1 [Compound 90, 3-(1-(1-(cyclopropylmethyl)piperidin-4-yl)-5-methyl-1H-pyrazol-4-ylamino) isonicotinic acid] | 100 to 1000 | 100 to 1000 | – | –
4 | Cc1nn(C2CCN(C3CN(C)C3)CC2)cc1Nc1cnccc1C(=O)O [Compound 91, 3-(3-methyl-1-(1-(1-methylazetidin-3-yl)piperidin-4-yl)-1H-pyrazol-4-ylamino)isonicotinic acid] | 100 to 1000 | 1000 to 10000 | – | –
5 | COC(=O)c1ccncc1Nc1cn(C2CCN(C3CCC3)CC2)nc1C [Compound 93, methyl 3-((1-(1-cyclobutylpiperidin-4-yl)-3-methyl-1H-pyrazol-4-yl)amino)isonicotinate] | 10000 to 100000 | – | > 100000 | –
6 | COC(=O)c1ccncc1Nc1cnn(C2CCN(C3CCC3)CC2)c1C [Compound 95, methyl 3-((1-(1-cyclobutylpiperidin-4-yl)-5-methyl-1H-pyrazol-4-yl)amino)isonicotinate] | 10000 to 100000 | 10000 to 100000 | – | –
7 | O=C(O)c1ccncc1Nc1nn(-c2ccccc2)cc1-c1ccncc1 [Compound 88, 3-((1-phenyl-4-(pyridin-4-yl)-1H-pyrazol-3-yl)amino) isonicotinic acid] | 100 to 1000 | 1 to 100 | – | –
8 | Cc1c(Nc2cnccc2C(=O)O)cnn1C1CCN(C2CN(C)C2)CC1 [Compound 92, 3-(5-methyl-1-(1-(1-methylazetidin-3-yl)piperidin-4-yl)-1H-pyrazol-4-ylamino)isonicotinic acid] | 100 to 1000 | 100 to 1000 | – | –
9 | Cc1nn(C2CCN(CC3CC3)CC2)cc1Nc1cnccc1C(=O)O [Compound 89, 3-(1-(1-(cyclopropylmethyl)piperidin-4-yl)-3-methyl-1H-pyrazol-4-ylamino)isonicotinic acid] | 1 to 100 | 100 to 1000 | – | –
10 | Cc1nn(C2CCN(C3CCC3)CC2)cc1Nc1cnccc1C(=O)O [Compound 94, 3-(1-(1-cyclobutylpiperidin-4-yl)-3-methyl-1H-pyrazol-4-ylamino)isonicotinic acid] | 1 to 100 | 100 to 1000 | – | –
11 | CN1CCC(n2ncc(Nc3cnccc3C(=O)O)c2-c2ccccc2)CC1 [Compound 126, 3-(1-(1-methylpiperidin-4-yl)-5-phenyl-1H-pyrazol-4-ylamino) isonicotinic acid] | – | 1000 to 10000 | – | 1490
12 | Cn1nc(Nc2cnccc2C(=O)O)cc1-c1ccccc1 [Compound 5] | 100 to 1000 | 100 to 1000 | – | –
13 | Cc1nn([C@H]2CC[C@@H](N)CC2)cc1Nc1cnccc1C(=O)O [Compound 80, 3-((1-((cis)-4-aminocyclohexyl)-3-methyl-1H-pyrazol-4-yl)amino)isonicotinic acid] | 100 to 1000 | 100 to 1000 | – | –
14 | Cn1ncc(-c2cccnc2)c1Nc1cnccc1C(=O)O [Compound 4] | 1000 to 10000 | 1000 to 10000 | – | –
15 | NC1CCC(n2nc(-c3cccc(Cl)c3)cc2Nc2cnccc2C(=O)O)CC1 (stereo not shown) [Compound 85, 3-((1-(4-aminocyclohexyl)-3-(3-chlorophenyl)-1H-pyrazol-5-yl)amino)isonicotinic acid] | 1000 to 10000 | 1000 to 10000 | – | –
16 | Cc1ccc(-n2cc(Nc3cnccc3C(=O)O)c(C)n2)cc1 [Compound 82] | 1 to 100 | 1 to 100 | – | –
17 | O=C(O)c1ccncc1Nc1cc(-c2cccc(Cl)c2)n(C2CCC3(CC2)OCCO3)n1 [Compound 86, 3-((5-(3-chlorophenyl)-1-(1,4-dioxaspiro[4.5]decan-8-yl)-1H-pyrazol-3-yl)amino)isonicotinic acid] | 100 to 1000 | 1000 to 10000 | – | –
